Test results taken from patent US20080233159A1, “Home-use insecticide” (priority 2007, published 2008).

Legend:
female house flies = assay: Comparative efficacy test by the microdrop method, subject compound and its seven other isomers; type: in vivo; conditions: for Insecticidal Efficacy Relative efficacy ratio: subject compound = 100
Method: 2-Methyl-4-oxo-3-(2-propynyl)-2-cyclopenten-1-yl 2,2-dimethyl-3-(2,2-dichlorovinyl)cyclopropanecarboxylate has a total of eight isomers based on two asymmetric carbon atoms of the acid portion and one asymmetric carbon atom of the alcohol portion. Therefore, a comparative efficacy test was conducted on female house flies using the microdrop method for the subject compound and the other seven isomers.

house flies = conditions: microdrop method, prallethrin isomers, d/d-trans isomer = 100; cited from earlier work
American cockroaches = assay: Residual contact method, test aerosols on decorative sheet; type: in vivo; conditions: for Mortality after 72 hours, After 1 day of spray: 0.35 g/300 ml aerosol at 25 mL/m^2, 2 hours contact 1 day after spraying
Method: (2-b) Residual Contact Method: The test aerosols were sprayed onto a decorative sheet measuring 20 cm on a side at the rate of 25 mL/m^2. After 1 day of spraying, a glass ring measuring 12 cm in diameter was placed on the decorative sheet and five American cockroaches were contacted with the sheet for 2 hours inside the ring at 1, 7, 15 and 21 days after spraying followed by observation of mortality 72 hours later.

[1] = Solubility / compatibility with kerosene; type: physicochemical
[2] = system: adult male American cockroaches; assay: Turntable method, test aerosols; type: in vivo; conditions: 0.35 g/300 ml aerosol; for KT50 value: 1 second spray, 5 minutes exposure
Excerpt: (2-a) Turntable Method: A glass cylinder having an inner diameter of 20 cm and height of 43 cm was placed on a wooden stand and a glass pot (outer diameter: 15 cm, height: 15 cm) containing two adult male American cockroaches was attached directly beneath the cylinder by using a glass plate as a shutter. Test aerosol insecticides prepared in accordance with Example 1 were sprayed into the glass cylinder for 1 second. Five seconds later, the glass plate shutter was pulled out and the test cockroaches were exposed to the descending aerosol particles for 5 minutes. The range of times until the occurrence of knockdown and the approximate average times were determined followed by observation of mortality 24 hours later. This test was repeated six times.

[3] = system: House flies (female adults); assay: Glass chamber method, test aerosols; type: in vivo; conditions: for Mortality: 10 minutes exposure, kill rate after additional 24 hours; for KT50 value: glass chamber 0.216 m^3, 1 second spray
Method: Glass chamber method: test aerosol insecticides prepared in accordance with Example 1 were sprayed for 1 second in a glass chamber having a volume of 60×60×60 cm (0.216 m^3). House flies (in groups of about 25 female adults each) were released into the chamber 10 seconds later, and the numbers of test […] that fell to the ground and rolled over during 10 minutes of exposure were recorded over the course of time to determine the KT50 values followed by observation of the kill rate after an additional 24 hours.

Row | Compound | Insecticidal Efficacy LD50 (female house flies) [μg/insect] | Insecticidal Efficacy Relative efficacy ratio (female house flies) | Relative efficacy ratio (house flies) | further results
1 | C#CCC1=C(C)C(OC(=O)C2C(C=C(Cl)Cl)C2(C)C)CC1=O (stereo not drawn) [Compound 2, 2-Methyl-4-oxo-3-(2-propynyl)-2-cyclopenten-1-yl 2,2-dimethyl-3-(2,2-dichlorovinyl)cyclopropanecarboxylate] | 0.0415 | 63.0 | – | –
2 | C#CCC1=C(C)C(OC(=O)C2C(C=C(Cl)Cl)C2(C)C)CC1=O (stereo not drawn) [Compound 3, 2-Methyl-4-oxo-3-(2-propynyl)-2-cyclopenten-1-yl 2,2-dimethyl-3-(2,2-dichlorovinyl)cyclopropanecarboxylate] | 0.245 | 11.0 | 17 | –
3 | C#CCC1=C(C)C(OC(=O)C2C(C=C(Cl)Cl)C2(C)C)CC1=O (stereo not drawn) [Compound 4, 2-Methyl-4-oxo-3-(2-propynyl)-2-cyclopenten-1-yl 2,2-dimethyl-3-(2,2-dichlorovinyl)cyclopropanecarboxylate] | 0.376 | 7.0 | 13 | –
4 | C#CCC1=C(C)C(OC(=O)C2C(C=C(Cl)Cl)C2(C)C)CC1=O (stereo not drawn) [Compound 7, 2-Methyl-4-oxo-3-(2-propynyl)-2-cyclopenten-1-yl 2,2-dimethyl-3-(2,2-dichlorovinyl)cyclopropanecarboxylate] | 3.29 | 0.8 | 0.2 | –
5 | C#CCC1=C(C)C(OC(=O)C2C(C=C(Cl)Cl)C2(C)C)CC1=O (stereo not drawn) [Compound 5, 2-Methyl-4-oxo-3-(2-propynyl)-2-cyclopenten-1-yl 2,2-dimethyl-3-(2,2-dichlorovinyl)cyclopropanecarboxylate] | 0.337 | 7.8 | 1.3 | –
6 | C#CCN1CC(=O)N(COC(=O)[C@@H]2C(C=C(C)C)C2(C)C)C1=O (mixture of isomers) [Imiprothrin, imiprothrin, reference compound] | – | – | – | Mortality after 72 hours, After 1 day of spray (American cockroaches): 0%; Solubility in / compatibility with kerosene [1]: extremely poor solubility in kerosene; Mortality after 24 hours [2]: 83%; KT50 value [2]: 51 s
7 | 2-Methyl-4-oxo-3-(2-propynyl)-2-cyclopenten-1-yl 2,2-dimethyl-3-(2,2-dichlorovinyl)cyclopropanecarboxylate [Compound 2] | – | – | 39 | –
8 | C#CCC1=C(C)C(OC(=O)C2C(C=C(Cl)Cl)C2(C)C)CC1=O (stereo not drawn) [Compound 8, 2-Methyl-4-oxo-3-(2-propynyl)-2-cyclopenten-1-yl 2,2-dimethyl-3-(2,2-dichlorovinyl)cyclopropanecarboxylate] | 5.30 | 0.5 | 0.2 | –
9 | d-T80-phthalthrin [reference compound] | – | – | – | Mortality ([3]; 0.15 g/300 ml aerosol): 20.0%; Mortality ([3]; 0.45 g/300 ml aerosol): 39.2%; KT50 value ([3]; 0.15 g/300 ml aerosol): 204 s; KT50 value ([3]; 0.45 g/300 ml aerosol): 73 s; Mortality after 24 hours [2]: 33%; KT50 value [2]: >300 s
10 | C#CCC1=C(C)C(OC(=O)[C@H]2[C@H](C=C(Cl)Cl)C2(C)C)CC1=O (relative stereo) [Compound 1, (d)-2-methyl-4-oxo-3-(2-propynyl)-2-cyclopenten-1-yl (d)-trans-2,2-dimethyl-3-(2,2-dichlorovinyl)cyclopropanecarboxylate] | 0.0263 | 100 | 100 | Mortality ([3]; 0.15 g/300 ml aerosol): 93.3%; Mortality ([3]; 0.45 g/300 ml aerosol): 100%; KT50 value ([3]; 0.15 g/300 ml aerosol): 73 s; KT50 value ([3]; 0.45 g/300 ml aerosol): 36 s; Mortality after 72 hours, After 1 day of spray (American cockroaches): 100%; Mortality after 72 hours, After 7 days (American cockroaches; 0.35 g/300 ml aerosol at 25 mL/m^2, 2 hours contact 7 days after spraying): 100%; Mortality after 72 hours, After 15 days (American cockroaches; 0.35 g/300 ml aerosol at 25 mL/m^2, 2 hours contact 15 days after spraying): 100%; Mortality after 72 hours, After 21 days (American cockroaches; 0.35 g/300 ml aerosol at 25 mL/m^2, 2 hours contact 21 days after spraying): 100%; Solubility in / compatibility with kerosene [1]: satisfactory compatibility with solvents such as kerosene; Mortality after 24 hours [2]: 100%; KT50 value [2]: 102 s
11 | C#CCC1=C(C)C(OC(=O)C2C(C=C(Cl)Cl)C2(C)C)CC1=O (stereo not drawn) [Compound 6, 2-Methyl-4-oxo-3-(2-propynyl)-2-cyclopenten-1-yl 2,2-dimethyl-3-(2,2-dichlorovinyl)cyclopropanecarboxylate] | 0.526 | 5.0 | 0.4 | –
